Values quoted from earlier work, collected in patent publication US20060165808A1, “Microcapsules for the delayed, controlled release of perindopril” (priority 2002, published 2006).

Compound: CCC[C@H](N[C@@H](C)C(=O)N1[C@H](C(=O)O)C[C@@H]2CCCC[C@@H]21)C(=O)OCC [perindopril]
- solubility in aqueous media: very high degree of solubility
